Measurements: patent US7534897B2 (Shionogi & Co., Ltd., priority 2002, dated 2009)

Target: T1, human CRTH2-transfected K562 cells (Homo sapiens, UniProt Q9Y5Y4)
T1 construct: expressed in transfected cells; host or cells: K562 cells
T1 sequence (Q9Y5Y4 1-395): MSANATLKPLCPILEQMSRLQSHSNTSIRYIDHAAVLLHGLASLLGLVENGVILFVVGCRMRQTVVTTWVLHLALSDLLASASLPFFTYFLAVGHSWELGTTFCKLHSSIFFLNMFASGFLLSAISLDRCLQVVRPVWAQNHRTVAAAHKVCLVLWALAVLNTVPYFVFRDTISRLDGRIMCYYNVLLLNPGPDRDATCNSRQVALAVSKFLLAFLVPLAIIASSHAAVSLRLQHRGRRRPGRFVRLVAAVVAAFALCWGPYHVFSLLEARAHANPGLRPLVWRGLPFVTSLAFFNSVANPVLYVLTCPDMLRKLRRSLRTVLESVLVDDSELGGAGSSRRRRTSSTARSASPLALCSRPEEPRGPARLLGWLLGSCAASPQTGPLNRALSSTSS
Assay: Antagonistic activity to CRTH2: calcium mobilization assay induced by PGD2
Format: cell-based
Conditions: compound at 1 μM, percent inhibition of PGD2-induced calcium mobilization
Method: Experiment 2 Evaluation of Antagonistic Activity to CRTH2
To evaluate the antagonistic activity of compounds against CRTH2, calcium mobilization assay induced by PGD2 was performed using CRTH2 transfectants.
The human CRTH2-transfected K562 cells were suspended at 2×10^6 cells/ml in assay buffer (10 mM HEPES buffer, pH 7.4, 0.1% Bovine serum albumin), and were incubated with Fura-2 AM (2 μM) for 60 min at room temperature. After washing cells were resuspended again with assay buffer, incubated at 37° C., and then treated with various concentrations of compounds for 2 min. The emitted fluorescence was measured on a calcium analyzer (CAF-110) after addition of PGD2.

Row | antagonistic activity to CRTH2 (% INH) | SMILES
1 | 89 % INH | O=C(O)Cn1cc(CCNS(=O)(=O)c2ccc(F)cc2)c2cc(F)ccc21 [Ia-36]
2 | 91 % INH | O=C(O)Cn1cc(CCN(Cc2ccccc2)S(=O)(=O)c2ccc(F)cc2)c2ccccc21 [Ia-51]
3 | 96 % INH | CN(C1CCc2c(c3ccccc3n2CC(=O)O)C1)S(=O)(=O)c1ccc(Cc2ccccc2)s1 (stereo not drawn) [Ib-31]
4 | 100 % INH | O=C(O)Cn1cc(C2CCCN(S(=O)(=O)c3ccc(F)cc3)C2)c2ccccc21 (stereo not drawn) [Ic-6]

Row | SMILES | antagonistic activity to CRTH2 (% INH)
5 | CN(c1ccc2c(c1)c1c(n2CC(=O)O)CCCC1)S(=O)(=O)c1ccc(F)cc1 [Ih-2] | 91 % INH

Test system: not given
Assay: not given
Conditions: not given

Row | melting point | SMILES
6 | 108 to 110 °C | COc1ccc(CN(CCc2cn(CC(=O)O)c3ccccc23)S(=O)(=O)c2ccc(F)cc2)cc1 [Ia-62]
7 | 175 to 180 °C | CN(C1CCc2c(c3ccccc3n2CC(=O)O)C1)S(=O)(=O)c1ccsc1 (stereo not drawn) [Ib-30]
8 | 138 to 140 °C | CN(C1CCc2c(c3ccccc3n2CC(=O)O)C1)S(=O)(=O)c1ccc(Cc2ccccc2)s1 (stereo not drawn) [Ib-31]
9 | 142 to 143 °C | O=C(O)Cn1cc(C2=CCCN(S(=O)(=O)c3ccc(F)cc3)C2)c2ccccc21 [Ic-2]
10 | 189 to 194 °C (dec.) | O=C(O)Cn1cc(C2CCCN(S(=O)(=O)c3ccc(F)cc3)C2)c2ccccc21 (stereo not drawn) [Ic-6]
11 | 155 to 156 °C | O=C(O)Cn1cc(C2CCN(S(=O)(=O)c3ccc(F)cc3)C2)c2ccccc21 (stereo not drawn) [Ic-14]
12 | 139 to 141 °C | O=C(O)Cn1c2ccccc2c2cc(NS(=O)(=O)c3ccc(F)cc3)ccc21 [Ie-2]
13 | 188 to 191 °C | CN(c1ccc2c(c1)c1ccccc1n2CC(=O)O)S(=O)(=O)c1ccc(F)cc1 [Ie-5]
14 | 212 to 213 °C | O=C(O)Cn1c2ccccc2c2cc(N(Cc3ccccc3)S(=O)(=O)c3ccc(F)cc3)ccc21 [Ie-8]
15 | 117 to 120 °C | O=C(O)Cn1cc(C(CNS(=O)(=O)c2ccc(F)cc2)c2ccccc2)c2ccccc21 (stereo not drawn) [If-9]
16 | 214 to 217 °C | CN(c1ccc2c(c1)c1c(n2CC(=O)O)CCSC1)S(=O)(=O)c1ccc(F)cc1 [Ig-3]
17 | 209 to 211 °C | O=C(O)Cn1c2c(c3cc(NS(=O)(=O)c4ccc(F)cc4)ccc31)CCCCC2 [Ig-11]
18 | 144 to 150 °C | COc1ccc(S(=O)(=O)N(C)c2ccc3c(c2)c2c(n3CC(=O)O)CCCCC2)cc1 [Ig-14]
19 | 186 to 189 °C | CN(c1ccc2c(c1)c1c(n2CC(=O)O)CCCCC1)S(=O)(=O)c1ccc(O)cc1 [Ig-16]
20 | 193 to 197 °C | O=C(O)Cn1c2c(c3cc(NS(=O)(=O)c4ccc(F)cc4)ccc31)CCCCCC2 [Ig-18]
21 | 198 to 202 °C | O=C(O)Cn1c2c(c3cc(N(Cc4ccccc4)S(=O)(=O)c4ccc(F)cc4)ccc31)CCCC2 [Ih-3]
22 | 100 to 101 °C | CC1CCc2c(c3cc(N(C)S(=O)(=O)c4ccc(F)cc4)ccc3n2CC(=O)O)C1 (stereo not drawn) [Ih-5]
23 | 176 to 178 °C | CC1CCc2c(c3cc(N(Cc4ccccc4)S(=O)(=O)c4ccc(F)cc4)ccc3n2CC(=O)O)C1 (stereo not drawn) [Ih-6]
24 | 165 to 179 °C | Cc1c(C)n(CC(=O)O)c2ccc(N(C)S(=O)(=O)c3ccc(F)cc3)cc12 [Ik-1]
25 | 206 to 208 °C (dec.) | Cc1cc2cc(N(C)S(=O)(=O)c3ccc(F)cc3)ccc2n1CC(=O)O [Ik-2]
26 | 172 to 178 °C | CCc1c(C)n(CC(=O)O)c2ccc(NS(=O)(=O)c3ccc(F)cc3)cc12 [Ik-3]
27 | 165 to 171 °C | Cc1c(C(C)C)c2cc(NS(=O)(=O)c3ccc(F)cc3)ccc2n1CC(=O)O [Ik-4]
28 | 161 to 167 °C | CCc1c(C)n(CC(=O)O)c2ccc(N(C)S(=O)(=O)c3ccc(F)cc3)cc12 [Ik-5]

Row | SMILES | melting point
29 | CN(c1ccc2c(c1)c1c(n2CC(=O)O)CCCC1=O)S(=O)(=O)c1ccc(F)cc1 [Ig-4] | 218 to 220 °C

Target: T2, CRTH2 (Homo sapiens, UniProt Q9Y5Y4)
T2 construct: expressed in transfected cells; host or cells: K562 cells (membrane fraction)
T2 sequence (Q9Y5Y4 1-395): T1 sequence (Q9Y5Y4 1-395)
Assay: Binding activity to CRTH2 ([3H]PGD2 binding assay)
Conditions: membrane fraction of CRTH2-transfected K562 cells, read-out: CRTH2 inhibitory activity IC50
Method: Experiment 1 Binding Activity to CRTH2
The membrane fraction prepared with CRTH2-transfected K562 cells was used for a binding assay. To a binding-reaction solution (50 mM Tris/HCl, pH 7.4, 10 mM MgCl2) the membrane fraction (0.06 mg) and 3 nM [^3H]PGD2 (172 Ci/mmol) were added, and the mixture was reacted at room temperature for 60 min. After the reaction, the mixture was filtered through a glass fiber filter paper and washed several times with cooled physiological saline, then the radioactivity retained on the filter paper was measured. The specific-binding ratio was calculated by subtracting the non-specific binding ratio which is the radioactivity similarly measured in the presence of 10 μM PGD2 from the total binding.

Row | IC50 | SMILES
30 | 5.9 nM | O=C(O)Cn1c2c(c3ccccc31)CC(NS(=O)(=O)c1ccc(F)cc1)CC2 (single isomer, unassigned; (+)) [(+)-Ib-16]
31 | 13 nM | Cc1ccc(S(=O)(=O)NC2CCc3c(c4ccccc4n3CC(=O)O)C2)cc1 (single isomer, unassigned; (+)) [(+)-Ib-18]
32 | 15 nM | O=C(O)Cn1cc(CCNS(=O)(=O)c2ccc(F)cc2)c2cc(F)ccc21 [Ia-36]
33 | 20 nM | O=C(O)Cn1cc(CCN(Cc2ccccc2)S(=O)(=O)c2ccc(F)cc2)c2ccccc21 [Ia-51]
34 | 49 nM | COc1ccc(CN(CCc2cn(CC(=O)O)c3ccccc23)S(=O)(=O)c2ccc(F)cc2)cc1 [Ia-62]
35 | 5.3 nM | CN(C1CCc2c(c3ccccc3n2CC(=O)O)C1)S(=O)(=O)c1ccsc1 (stereo not drawn) [Ib-30]
36 | 59 nM | CN(C1CCc2c(c3ccccc3n2CC(=O)O)C1)S(=O)(=O)c1ccc(Cc2ccccc2)s1 (stereo not drawn) [Ib-31]
37 | 21 nM | O=C(O)Cn1cc(C2=CCCN(S(=O)(=O)c3ccc(F)cc3)C2)c2ccccc21 [Ic-2]
38 | 4.5 nM | O=C(O)Cn1cc(C2CCCN(S(=O)(=O)c3ccc(F)cc3)C2)c2ccccc21 (stereo not drawn) [Ic-6]
39 | 5.5 nM | O=C(O)Cn1cc(C2CCN(S(=O)(=O)c3ccc(F)cc3)C2)c2ccccc21 (stereo not drawn) [Ic-14]
40 | 39 nM | O=C(O)Cn1c2ccccc2c2cc(NS(=O)(=O)c3ccc(F)cc3)ccc21 [Ie-2]
41 | 18 nM | CN(c1ccc2c(c1)c1ccccc1n2CC(=O)O)S(=O)(=O)c1ccc(F)cc1 [Ie-5]
42 | 26 nM | O=C(O)Cn1c2ccccc2c2cc(N(Cc3ccccc3)S(=O)(=O)c3ccc(F)cc3)ccc21 [Ie-8]
43 | 12 nM | O=C(O)Cn1cc(C(CNS(=O)(=O)c2ccc(F)cc2)c2ccccc2)c2ccccc21 (stereo not drawn) [If-9]
44 | 9.7 nM | CN(c1ccc2c(c1)c1c(n2CC(=O)O)CCSC1)S(=O)(=O)c1ccc(F)cc1 [Ig-3]
45 | 10 nM | O=C(O)Cn1c2c(c3cc(NS(=O)(=O)c4ccc(F)cc4)ccc31)CCCCC2 [Ig-11]
46 | 8.3 nM | COc1ccc(S(=O)(=O)N(C)c2ccc3c(c2)c2c(n3CC(=O)O)CCCCC2)cc1 [Ig-14]
47 | 3.6 nM | CN(c1ccc2c(c1)c1c(n2CC(=O)O)CCCCC1)S(=O)(=O)c1ccc(O)cc1 [Ig-16]
48 | 19 nM | O=C(O)Cn1c2c(c3cc(NS(=O)(=O)c4ccc(F)cc4)ccc31)CCCCCC2 [Ig-18]
49 | 33 nM | O=C(O)Cn1c2c(c3cc(N(Cc4ccccc4)S(=O)(=O)c4ccc(F)cc4)ccc31)CCCC2 [Ih-3]
50 | 23 nM | CC1CCc2c(c3cc(N(C)S(=O)(=O)c4ccc(F)cc4)ccc3n2CC(=O)O)C1 (stereo not drawn) [Ih-5]
51 | 34 nM | CC1CCc2c(c3cc(N(Cc4ccccc4)S(=O)(=O)c4ccc(F)cc4)ccc3n2CC(=O)O)C1 (stereo not drawn) [Ih-6]
52 | 48 nM | Cc1c(C)n(CC(=O)O)c2ccc(N(C)S(=O)(=O)c3ccc(F)cc3)cc12 [Ik-1]
53 | 86 nM | Cc1cc2cc(N(C)S(=O)(=O)c3ccc(F)cc3)ccc2n1CC(=O)O [Ik-2]
54 | 51 nM | CCc1c(C)n(CC(=O)O)c2ccc(NS(=O)(=O)c3ccc(F)cc3)cc12 [Ik-3]
55 | 47 nM | Cc1c(C(C)C)c2cc(NS(=O)(=O)c3ccc(F)cc3)ccc2n1CC(=O)O [Ik-4]
56 | 19 nM | CCc1c(C)n(CC(=O)O)c2ccc(N(C)S(=O)(=O)c3ccc(F)cc3)cc12 [Ik-5]

Row | SMILES | IC50
57 | CN(c1ccc2c(c1)c1c(n2CC(=O)O)CCCC1=O)S(=O)(=O)c1ccc(F)cc1 [Ig-4] | 7.8 nM
